# Reference: patent US20230174584A1, “Antibiotic Compounds” (priority 2019, published 2023)
# Legend:
# [1] = tested on: S. aureus ATCC29123; experiment: Lipid II antagonization assay; assay type: cell-based, Staphylococcus aureus; conditions: for visible bacterial growth with lipid II / visible bacterial growth without lipid II: 8×MIC of test compound, 24 h; for visible bacterial growth with lipid II: 5-fold molar excess of lipid II; for bacterial growth after co-incubation with lipid II: 8×MIC; as to visible bacterial growth with lipid II: key: − means no visible growth; + means visible growth; as to visible bacterial growth without lipid II: key: − means no visible growth; + means visible growth
# Protocol: Lipid II in chloroform was added in the appropriate amount (5-fold molar excess compared to test antibiotics) to a 96-well plate and the chloroform was allowed to evaporate. […] Of these dilutions, 50 μL was mixed with the 5-fold molar excess of pure lipid II in triplicates in the plate as well as added to the plate in triplicates without lipid II present. S. aureus ATCC29123 colonies were suspended in TSB with 0.002% p80 by direct colony suspension to an optical density that reached a level equivalent to the 0.5 McFarlan standard. […] The samples were incubated at 37° C. for 24 h with constant shaking (600 rpm) and inspected for visible bacterial growth. Positive growth control consisted of wells with bacterial suspension and without antibiotic or lipid II. Negative growth control consisted of solely media without bacterial suspension, antibiotic or lipid II.
# In the antagonization assay, lipid II is co-incubated with the test antibiotics in the presence of bacterial culture. When lipid II binds the glycopeptides, the binding of these antibiotics to their target in the growing bacterial culture is antagonized. This ultimately results in diminished activity of the antibiotics and bacterial growth which normally would not be visible (at 8×MIC) becomes visible. Therefore, this assay could be used to determine if part of the mechanism of action of our compounds involves binding to lipid II.
# [2] = tested on: E. faecium E2297; experiment: MIC assay; assay type: cell-based, Enterococcus faecium
# How it was run: (§1)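 Inoculum 10^6 CFU/mL in TSB/0.002% p80 (Enterococcus, VISA, VRSA pre-grown to 0.5 McFarland). 2-fold dilutions, 1:1 with inoculum. 37 °C × 24 h, 600 rpm, sealed breathable membrane. MIC median of ≥3.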
# [3] = tested on: E. faecium E7464; experiment: MIC assay; assay type: cell-based, Enterococcus faecium
# How it was run: as §1
# [4] = tested on: E. faecium E8218; experiment: MIC assay; assay type: cell-based, Enterococcus faecium
# How it was run: as §1
# [5] = tested on: E. faecium E7329; experiment: MIC assay; assay type: cell-based, Enterococcus faecium
# How it was run: as §1
# [6] = tested on: E. faecium E0013; experiment: MIC assay; assay type: cell-based, Enterococcus faecium
# How it was run: as §1
# [7] = tested on: E. faecium E8235; experiment: MIC assay; assay type: cell-based, Enterococcus faecium
# How it was run: as §1
# [8] = tested on: E. faecium E1763; experiment: MIC assay; assay type: cell-based, Enterococcus faecium
# How it was run: as §1
# [9] = tested on: E. faecium E7401; experiment: MIC assay; assay type: cell-based, Enterococcus faecium
# How it was run: as §1
# [10] = tested on: E. faecium E1679; experiment: MIC assay; assay type: cell-based, Enterococcus faecium
# How it was run: as §1
# [11] = tested on: E. faecium E2365; experiment: MIC assay; assay type: cell-based, Enterococcus faecium
# How it was run: as §1
# [12] = tested on: E. faecium E7403; experiment: MIC assay; assay type: cell-based, Enterococcus faecium
# How it was run: as §1
# [13] = tested on: E. faecium E6016; experiment: MIC assay; assay type: cell-based, Enterococcus faecium
# How it was run: as §1
# [14] = tested on: E. faecium E8237; experiment: MIC assay; assay type: cell-based, Enterococcus faecium
# How it was run: as §1
SMILES,visible bacterial growth with lipid II [1],visible bacterial growth without lipid II [1],bacterial growth after co-incubation with lipid II [1],"MIC ([2]; E. faecium E2297, VanA) [µg/mL]","MIC ([3]; E. faecium E7464, VanB) [µg/mL]","MIC ([4]; E. faecium E8218, VanB) [µg/mL]","MIC ([5]; E. faecium E7329, VanA) [µg/mL]","MIC ([6]; E. faecium E0013, VanA) [µg/mL]","MIC ([7]; E. faecium E8235, VanB) [µg/mL]","MIC ([8]; E. faecium E1763, VanA) [µg/mL]","MIC ([9]; E. faecium E7401, VanB) [µg/mL]","MIC ([10]; E. faecium E1679, VanA) [µg/mL]","MIC ([11]; E. faecium E2365, VanB) [µg/mL]","MIC ([12]; E. faecium E7403, VanB) [µg/mL]","MIC ([13]; E. faecium E6016, VanA) [µg/mL]","MIC ([14]; E. faecium E8237, VanA) [µg/mL]",also measured
CCCCCCCNC(N)=Nc1ccc(CN[C@@]2(C)C[C@H](O[C@H]3[C@H](Oc4c5cc6cc4Oc4ccc(cc4Cl)[C@@H](O)[C@@H](NC(=O)[C@@H](CC(C)C)NC)C(=O)N[C@@H](CC(N)=O)C(=O)N[C@H]6C(=O)N[C@H]4C(=O)N[C@H](C(=O)N[C@H](C(=O)O)c6cc(O)cc(O)c6-c6cc4ccc6O)[C@H](O)c4ccc(c(Cl)c4)O5)O[C@H](CO)[C@@H](O)[C@@H]3O)O[C@@H](C)[C@H]2O)cc1 [Compound 5],+,−,Bacterial growth was visible,2,≤0.008,≤0.008,≤0.008,4,≤0.008,0.25,≤0.008,16,≤0.008,≤0.008,1,8,
CCCCCCCCNC(N)=Nc1ccc(CN[C@@]2(C)C[C@H](O[C@H]3[C@H](Oc4c5cc6cc4Oc4ccc(cc4Cl)[C@@H](O)[C@@H](NC(=O)[C@@H](CC(C)C)NC)C(=O)N[C@@H](CC(N)=O)C(=O)N[C@H]6C(=O)N[C@H]4C(=O)N[C@H](C(=O)N[C@H](C(=O)O)c6cc(O)cc(O)c6-c6cc4ccc6O)[C@H](O)c4ccc(c(Cl)c4)O5)O[C@H](CO)[C@@H](O)[C@@H]3O)O[C@@H](C)[C@H]2O)cc1 [Compound 6],+,−,Bacterial growth was visible,1,≤0.008,≤0.008,≤0.008,1,≤0.008,0.031,≤0.008,8,≤0.008,≤0.008,0.5,2,
CCCCCCCCCNC(N)=Nc1ccc(CN[C@@]2(C)C[C@H](O[C@H]3[C@H](Oc4c5cc6cc4Oc4ccc(cc4Cl)[C@@H](O)[C@@H](NC(=O)[C@@H](CC(C)C)NC)C(=O)N[C@@H](CC(N)=O)C(=O)N[C@H]6C(=O)N[C@H]4C(=O)N[C@H](C(=O)N[C@H](C(=O)O)c6cc(O)cc(O)c6-c6cc4ccc6O)[C@H](O)c4ccc(c(Cl)c4)O5)O[C@H](CO)[C@@H](O)[C@@H]3O)O[C@@H](C)[C@H]2O)cc1 [Compound 7],+,−,Bacterial growth was visible,0.5,≤0.008,≤0.008,≤0.008,0.5,≤0.008,≤0.008,≤0.008,4,≤0.008,≤0.008,0.25,1,
CCCCCCN(CCCCCC)C(N)=Nc1ccc(CN[C@@]2(C)C[C@H](O[C@H]3[C@H](Oc4c5cc6cc4Oc4ccc(cc4Cl)[C@@H](O)[C@@H](NC(=O)[C@@H](CC(C)C)NC)C(=O)N[C@@H](CC(N)=O)C(=O)N[C@H]6C(=O)N[C@H]4C(=O)N[C@H](C(=O)N[C@H](C(=O)O)c6cc(O)cc(O)c6-c6cc4ccc6O)[C@H](O)c4ccc(c(Cl)c4)O5)O[C@H](CO)[C@@H](O)[C@@H]3O)O[C@@H](C)[C@H]2O)cc1 [Compound 12],,,,1,≤0.008,≤0.008,≤0.008,2,≤0.008,0.031,≤0.008,8,≤0.008,≤0.008,0.5,2,
CN[C@H](CC(C)C)C(=O)N[C@H]1C(=O)N[C@@H](CC(N)=O)C(=O)N[C@H]2C(=O)N[C@H]3C(=O)N[C@H](C(=O)N[C@H](C(=O)O)c4cc(O)cc(O)c4-c4cc3ccc4O)[C@H](O)c3ccc(c(Cl)c3)Oc3cc2cc(c3O[C@@H]2O[C@H](CO)[C@@H](O)[C@H](O)[C@H]2O[C@H]2C[C@](C)(NCc3ccc(N=C(N)NC/C=C(\C)CCC=C(C)C)cc3)[C@H](O)[C@H](C)O2)Oc2ccc(cc2Cl)[C@H]1O [Compound 14],+,−,Bacterial growth was visible,2,≤0.008,≤0.008,≤0.008,2,≤0.008,0.125,≤0.008,16,≤0.008,≤0.008,2,4,
"CCCCCCCCCCNCCN[C@@]1(C)C[C@H](O[C@H]2[C@H](Oc3c4cc5cc3Oc3ccc(cc3Cl)[C@@H](O)[C@@H](NC(=O)[C@@H](CC(C)C)NC)C(=O)N[C@@H](CC(N)=O)C(=O)N[C@H]5C(=O)N[C@H]3C(=O)N[C@H](C(=O)N[C@H](C(=O)O)c5cc(O)c(CNCP(=O)(O)O)c(O)c5-c5cc3ccc5O)[C@H](O)c3ccc(c(Cl)c3)O4)O[C@H](CO)[C@@H](O)[C@@H]2O)O[C@@H](C)[C@H]1O [Telavancin, reference compound]",+,−,,,,,,,,,,,,,,,"MIC ([2]; Enterococcus faecium, E2297): 4 µg/mL; MIC ([3]; Enterococcus faecium, E7464): ≤ 0.008 µg/mL; MIC ([4]; Enterococcus faecium, E8218): ≤ 0.008 µg/mL; MIC ([5]; Enterococcus faecium, E7329): ≤ 0.008 µg/mL; MIC ([6]; Enterococcus faecium, E0013): 4 µg/mL; MIC ([7]; Enterococcus faecium, E8235): ≤ 0.008 µg/mL; MIC ([8]; Enterococcus faecium, E1763): 1 µg/mL; MIC ([9]; Enterococcus faecium, E7401): ≤ 0.008 µg/mL; MIC ([10]; Enterococcus faecium, E1679): 16 µg/mL; MIC ([11]; Enterococcus faecium, E2365): ≤ 0.008 µg/mL; MIC ([12]; Enterococcus faecium, E7403): ≤ 0.008 µg/mL; MIC ([13]; Enterococcus faecium, E6016): 4 µg/mL; MIC ([14]; Enterococcus faecium, E8237): 16 µg/mL"
"CN[C@H](CC(C)C)C(=O)N[C@H]1C(=O)N[C@@H](CC(N)=O)C(=O)N[C@H]2C(=O)N[C@H]3C(=O)N[C@H](C(=O)N[C@H](C(=O)O)c4cc(O)cc(O)c4-c4cc3ccc4O)[C@H](O)c3ccc(c(Cl)c3)Oc3cc2cc(c3O[C@@H]2O[C@H](CO)[C@@H](O)[C@H](O)[C@H]2O[C@H]2C[C@](C)(N)[C@H](O)[C@H](C)O2)Oc2ccc(cc2Cl)[C@H]1O [Vancomycin, reference compound]",+,−,,,,,,,,,,,,,,,"MIC ([2]; Enterococcus faecium, E2297): > 128 µg/mL; MIC ([3]; Enterococcus faecium, E7464): 16 µg/mL; MIC ([4]; Enterococcus faecium, E8218): 8 µg/mL; MIC ([5]; Enterococcus faecium, E7329): 1 µg/mL; MIC ([6]; Enterococcus faecium, E0013): > 128 µg/mL; MIC ([7]; Enterococcus faecium, E8235): 16 µg/mL; MIC ([8]; Enterococcus faecium, E1763): 128 µg/mL; MIC ([9]; Enterococcus faecium, E7401): 16 µg/mL; MIC ([10]; Enterococcus faecium, E1679): > 128 µg/mL; MIC ([11]; Enterococcus faecium, E2365): 16 µg/mL; MIC ([12]; Enterococcus faecium, E7403): 16 µg/mL; MIC ([13]; Enterococcus faecium, E6016): > 128 µg/mL; MIC ([14]; Enterococcus faecium, E8237): > 128 µg/mL"
